ChEMBL document CHEMBL1201862, “PubChem BioAssay data set” (2004)
Several values for one entry are separate records, joined by “and”; a condition that tells them apart may be missing. Identical values can stand only once.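 Values below derive from 48-hour exposures of cells grown in 96-well plates, with endpoints linearly interpolated between the two concentrations bracketing the appropriate inhibition level. At the GI50, growth is halved.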 Activity calls are given as the source filed them. Rule as the data show it: active = GI50 up to about 1.1 µM and inactive = higher.

Columns and labels:
Assay in all cases: NCI-60 cell line screen, 48 h
DMS-114 = tested on: DMS-114
DLD-1 = tested on: DLD-1
M19-MEL = tested on: M19-MEL
SNB-78 = tested on: SNB-78
LXFL 529 = tested on: LXFL 529
XF498 = tested on: XF498
HOP-18 = tested on: HOP-18
KM-20L2 = tested on: KM-20L2
RXF 631 = tested on: RXF 631

| SMILES | GI50 (DMS-114) | GI50 (DLD-1) | GI50 (M19-MEL) | GI50 (SNB-78) | GI50 (LXFL 529) | GI50 (XF498) | GI50 (HOP-18) | GI50 (KM-20L2) | GI50 (RXF 631) |
| --- | --- | --- | --- | --- | --- | --- | --- | --- | --- |
| O=[N+]([O-])c1ccc2occ3c2c1CCC3 | > 100 µM (inactive) | > 100 µM (inactive) | > 100 µM (inactive) | > 100 µM (inactive) | > 100 µM (inactive) |  |  |  |  |
| O=C(Cc1nc2ccccc2s1)C(=O)Nc1ccccc1C(F)(F)F | > 100 µM (inactive) | > 100 µM (inactive) | > 100 µM (inactive) | > 100 µM (inactive) | > 100 µM (inactive) | > 100 µM (inactive) | > 100 µM (inactive) | > 100 µM (inactive) |  |
| O=CC1=CCCN(CCc2c[nH]c3ccccc23)C1 | 40.6 µM (inactive) | 53.5 µM (inactive) | 72.8 µM (inactive) |  | 11.2 µM (inactive) |  | 57.3 µM (inactive) | 65.8 µM (inactive) | 47 µM (inactive) |
| C1CCN(c2nc(=[N+]3CCCCC3)ss2)CC1 | 31.1 µM (inactive) | > 100 µM (inactive) | > 100 µM (inactive) | > 100 µM (inactive) | > 100 µM (inactive) | > 100 µM (inactive) | > 100 µM (inactive) | > 100 µM (inactive) | > 100 µM (inactive) |
| CCCCCCCCOC(=O)c1cc([N+](=O)[O-])c(Sc2[nH]cnc3ncnc2-3)c([N+](=O)[O-])c1 | 0.507 µM (active) | 1.11 µM (active) | 6.38 µM (inactive) | 2.47 µM (inactive) |  | 0.67 µM (active) | 1.65 µM (inactive) | 1.99 µM (inactive) |  |
| CCOC(=N)CC(=O)Nc1ccccc1 | 35.8 µM (inactive) | > 46.5 µM (inactive) | > 46.5 µM (inactive) | > 46.5 µM (inactive) | > 46.5 µM (inactive) | > 43.9 µM (inactive) | > 31.6 µM (inactive) | > 100 µM (inactive) |  |
| Cc1ccccc1NC(=O)CC1C(=O)Nc2ccccc2[S+]1[O-] (configuration not stated) | > 100 µM (inactive) | > 100 µM (inactive) | > 100 µM (inactive) | > 100 µM (inactive) | > 100 µM (inactive) | 96.6 µM (inactive) |  | > 100 µM (inactive) | 93.8 µM (inactive) |
| COc1cc(/C=C/c2cccnc2)cc(OC)c1OC | > 100 µM (inactive) | > 100 µM (inactive) | > 100 µM (inactive) | > 100 µM (inactive) | 92.7 µM (inactive) | > 100 µM (inactive) | 53.1 µM (inactive) | > 100 µM (inactive) |  |
| O=c1c2ccccc2c(=O)n2n1CC=CC2 | > 100 µM (inactive) | > 100 µM (inactive) | > 100 µM (inactive) | > 100 µM (inactive) | > 100 µM (inactive) |  | > 100 µM (inactive) | > 100 µM (inactive) |  |
| CCOc1ccc(/N=N/c2c(-c3ccccc3)nn(C(=O)CC(=O)Nc3ccccc3Cl)c2-c2ccccc2)cc1 | 23 µM (inactive) | 45.2 µM (inactive) | 54.8 µM (inactive) | 51.4 µM (inactive) | 76 µM (inactive) | 28.4 µM (inactive) | > 100 µM (inactive) | 56.4 µM (inactive) |  |
| Clc1cccc(C2SCc3nc4ccccc4n32)c1Cl (configuration not stated) | 20.7 µM (inactive) | 16.6 µM (inactive) | 12.5 µM (inactive) | 38.1 µM (inactive) | 15.9 µM (inactive) | 16 µM (inactive) | 18.1 µM (inactive) | 19.4 µM (inactive) |  |
| Nc1nc2c3nc(Nc4ccccc4)sc3nc(=O)n2c2sc(Nc3ccccc3)nc12 |  | > 100 µM (inactive) | > 100 µM (inactive) | > 100 µM (inactive) | > 100 µM (inactive) | > 100 µM (inactive) | > 100 µM (inactive) | > 100 µM (inactive) |  |
| CCOC(=O)C1C(=O)C(C(=O)OCC)C(c2ccccc2)N(C)C1c1ccccc1 (configuration not stated) | 56 µM (inactive) | > 100 µM (inactive) | > 100 µM (inactive) | > 100 µM (inactive) | > 100 µM (inactive) |  |  | > 100 µM (inactive) | > 100 µM (inactive) |
| O=C1C(=O)N(C(=O)c2ccc(Cl)c(Cl)c2)c2ccccc21 | > 100 µM (inactive) | > 100 µM (inactive) | > 100 µM (inactive) | > 100 µM (inactive) | > 100 µM (inactive) |  | > 100 µM (inactive) |  | > 100 µM (inactive) |
| NNC(=S)N/N=C(\CC1OC(=O)c2ccccc21)c1ccccc1O (configuration not stated) | 58.1 µM (inactive) | 44.6 µM (inactive) | 20.7 µM (inactive) | 33 µM (inactive) | 53.1 µM (inactive) | 34.2 µM (inactive) | 94.4 µM (inactive) | 92.5 µM (inactive) | 26.5 µM (inactive) |
| CCCCC(/C=N/NC(=N)N)CC.Cc1cc(O)c(C(C)C)cc1S(=O)(=O)O | 24.5 µM (inactive) | > 100 µM (inactive) | 48.3 µM (inactive) | 84.7 µM (inactive) | 70.8 µM (inactive) |  |  | 45.7 µM (inactive) |  |
| CC(=O)OC1C/C(C)=C/CCC(C)/C=C/C2(C)CCC(C(C)(C)O)C12 (configuration not stated) | 34.6 µM (inactive) | 45.1 µM (inactive) | 28.9 µM (inactive) | 61.9 µM (inactive) | 58.5 µM (inactive) | 39.4 µM (inactive) | > 100 µM (inactive) | 49.4 µM (inactive) |  |
| N=C1N(c2ccccc2)C(=O)C23CCCC2C13N1CCOCC1 (configuration not stated) | > 100 µM (inactive) | > 100 µM (inactive) | > 100 µM (inactive) | > 100 µM (inactive) | > 100 µM (inactive) |  | > 100 µM (inactive) | > 100 µM (inactive) | > 100 µM (inactive) |
| CC(C)(C)CC(C)(C)c1cc2c(O)c(c1)Cc1cc(C(C)(C)CC(C)(C)C)cc(c1O)Cc1cc(C(C)(C)CC(C)(C)C)cc(c1O)Cc1cc(C(C)(C)CC(C)(C)C)cc(c1O)C2 | > 100 µM (inactive) | > 100 µM (inactive) | > 100 µM (inactive) | > 100 µM (inactive) | > 100 µM (inactive) | > 100 µM (inactive) |  | > 100 µM (inactive) | > 100 µM (inactive) |
| CC(NC(=O)c1ccccc1)C(=O)N(Cc1ccccc1)Cc1ccccc1 (configuration not stated) | 19 µM (inactive) | 31.4 µM (inactive) | 24.4 µM (inactive) | 27.7 µM (inactive) | 18.4 µM (inactive) |  |  | 26.2 µM (inactive) |  |
| COc1c(-c2ccccc2)nc2ccc(Oc3ccccc3)nn12 | > 50.4 µM (inactive) | 48.3 µM (inactive) | > 64.3 µM (inactive) | > 60 µM (inactive) | > 38.3 µM (inactive) | 23.8 µM (inactive) | > 45.5 µM (inactive) | > 75 µM (inactive) |  |
| CCCCCCC(C)CCCCCCCCCCC(=O)O (configuration not stated) | > 100 µM (inactive) | > 100 µM (inactive) | > 100 µM (inactive) |  | > 100 µM (inactive) | > 100 µM (inactive) | > 100 µM (inactive) | > 100 µM (inactive) | > 100 µM (inactive) |
| COC(=O)[C@@H]1[C@H](O)[C@H](C)[C@H](O)[C@@](C)(O)/C=C\C=C(\C)C(=O)Nc2c(C)c(OC(C)=O)c3c(c2O)C(=O)C(C)=C2OCOC(=C23)/C(C)=C/[C@@](C)(O)[C@H](O)[C@@H](C)[C@H]1OC(C)=O | 33.2 µM (inactive) and 624 nM (active) | 22.4 µM (inactive) | 11.5 µM (inactive) | > 66.8 µM (inactive) | 57.4 µM (inactive) |  | 30.6 µM (inactive) | 57.1 µM (inactive) |  |
